The subject of the data set is tumour tissue. Briefly: Evans Blue perfusion test in tumour-bearing mouse. It is filed as in vivo. From the text:
FIG. 53 illustrates the result of an Evans Blue perfusion test;
Perfusion • A. One of the physiological impediments reducing the efficacy of chemotherapy relates to the poor diffusion of the drug from the capillaries through to the interstitial spaces surrounding the tumour cells. Poor lymphatic drainage and an irregular vasculature leads to the tumour interstitial pressure increasing with time as the tumour grows. This positive pressure is the opposite of normal tissue where a slightly negative interstitial pressure allows for convection of molecules across the capillaries. See FIG. 51 in which the X-axis represents the tumour volume in cm^3, Y-axis represents tumour interstitial pressure readings in mmHg. Each dot represents one TIP reading at a given tumour volume. Linear line represents correlation coefficients between tumour volume and TIP. • B. The positive pressure within the tumour tissue can be immediately negated through the placement of a vacuum directly on the tumour tissue. […] This facilitates better drug perfusion throughout the tumour interstitial spaces (between the cells) by allowing convection of macromolecules from the capilliaries to the […]. • C. This correction allows for perfusion of the chemotherapy from the capillaries into the tumour tissue. […]

`Cc1cc(-c2ccc(/N=N/c3ccc4c(S(=O)(=O)O)cc(S(=O)(=O)O)c(N)c4c3O)c(C)c2)ccc1/N=N/c1ccc2c(S(=O)(=O)O)cc(S(=O)(=O)O)c(N)c2c1O` [Evans blue]: the “dye perfusion into tumour, no vacuum” value (15 mins after injection into blood supply, tumour excised and dissected) is reported as “only the periphery has absorbed the dye”. Also, for the setting “vacuum applied to the tumour for 1 minute at 200 mmHg of negative pressure”, the “dye perfusion into tumour, with vacuum” value is on record as “Deep permeation of the dye is achieved throughout the tumour tissue”.
